What was measured:
[1] = test system: TxpIC-induced primary human hepatocytes (PHH); experiment: Inflammatory gene expression in TxpIC-induced primary human hepatocytes; format: cell-based; conditions: for Tx pIC induced CxCl10 expression: as compared with sPIF; for Tx pIC induced RSAD2: sPIF 200 nM
From the text: (§1) Methods Primary human hepatocytes (PHHs) and HepaRG™ cells were studied. The later are terminally differentiated hepatic cells derived from a human hepatic progenitor cell line that retains many characteristics of primary human hepatocytes were purchased from Thermo Fisher Scientific Inc. (MA, USA). PHHs were also obtained from Dr. David Geller, at the University of Pittsburgh, through the NIH funded Liver Tissue and Cell Distribution System (LTCDS) and maintained in Williams E Medium containing cell maintenance supplement reagents from Invitrogen (Carlsbad, Calif.). The HCV JFH strain was used in cell culture experiments at an M.O.I. of 0.5-1. […] In other experiments TxpIC at 500 ng/ml were added to the cells. This chemical replicates a viral induced inflammation and therefore it can be used in different cell types also when hepatitis C infection is difficult to induce. […] Li, K. (2012). Hepatology, 55: 666-675. For analysis of endogenous mRNA levels, total RNA was isolated from cells using the RNeasy RNA extraction kit (Qiagen, Valencia, Calif.) and cDNA synthesis was performed using 0.5 μg of total RNA (Transcriptor First Strand cDNA Synthesis Kit, Roche, Basel, Switzerland). Fluorescence real-time PCR analysis was preformed using an ABI 7500 instrument (Applied Biosystems, Foster City, Calif.) and TaqMan gene expression assay (Applied Biosystems). Relative amounts of mRNA, determined using a FAM-Labeled TaqMan Probe, were normalized to the 18S ribosomal RNA levels in each PCR reaction using the eukaryotic 18S rRNA endogenous control from ABI (VIC/MGB Probe, Primer Limited, Cat #4319413E). The delta 2(-Delta Delta C(T)) method was used for quantitation of relative mRNA levels and fold induction.

Kv flux = format: cell-based; design: Effectiveness: scale not given here; conditions: for Effectiveness / Kv flux 100% in nt (stimulus buffer only): conc. 0.625 uM; for K+ inhibition as compared with sPIF: dose comparison analysis
Description: Currently, effective immunomodulatory agents, with minimal side effects, that can regulate inflammation in the liver to promote liver health in the setting of chronic liver disease have not been developed and they are desperately needed. […] In addition, the effect of TxpIC on these cells were tested This is a potent chemical mimicking viarl infection in the liver.

[2] = test system: Hepatitis C (HCV)-induced primary human hepatocytes (PHH); experiment: Inflammatory gene expression in HCV-induced primary human hepatocytes; format: cell-based
From the text: as §1

[3] = test system: HepaRG cells induced by TxpIC; experiment: Inflammatory gene expression in TxpIC-induced HepaRG cells (real-time PCR); format: cell-based, human; conditions: TxpIC 500 ng/ml
From the text: Methods Primary human hepatocytes (PHHs) and HepaRG™ cells were studied. The later are terminally differentiated hepatic cells derived from a human hepatic progenitor cell line that retains many characteristics of primary human hepatocytes were purchased from Thermo Fisher Scientific Inc. (MA, USA). PHHs were also obtained from Dr. David Geller, at the University of Pittsburgh, through the NIH funded Liver Tissue and Cell Distribution System (LTCDS) and maintained in Williams E Medium containing cell maintenance supplement reagents from Invitrogen (Carlsbad, Calif.). The HCV JFH strain was used in cell culture experiments at an M.O.I. of 0.5-1. […] In other experiments TxpIC at 500 ng/ml were added to the cells. […] Fluorescence real-time PCR analysis was preformed using an ABI 7500 instrument (Applied Biosystems, Foster City, Calif.) and TaqMan gene expression assay (Applied Biosystems). Relative amounts of mRNA, determined using a FAM-Labeled TaqMan Probe, were normalized to the 18S ribosomal RNA levels in each PCR reaction using the eukaryotic 18S rRNA endogenous control from ABI (VIC/MGB Probe, Primer Limited, Cat #4319413E). The delta 2(-Delta Delta C(T)) method was used for quantitation of relative mRNA levels and fold induction.

MVRIYPGSANKPSDD [PIF-pos3]
500 ng/ml TpxIC induced CCL5 [1]: Inhibitory effect
Tx pIC induced CxCl10 expression [1]: inhibit
Tx pIC induced RSAD2 [1]: inhibit
Effectiveness (Kv flux): 52.05
Kv flux 100% in nt (stimulus buffer only) (Kv flux): 47.95%
K+ inhibition as compared with sPIF (Kv flux): increased K+ inhibition as compared with sPIF
HCV induced CXCL10 expression [2]: inhibit
INFa induced suppression of HCV [2]: potentiate

MVRIKPWSANKPSDD [PIF-pos6]
Effectiveness (Kv flux): −20.45
Kv flux 100% in nt (stimulus buffer only) (Kv flux): 120.5%

MVRIWPGSANKPSDD [PIF-pos1]
Effectiveness (Kv flux): 47.8
Kv flux 100% in nt (stimulus buffer only) (Kv flux): 52.2%

MVRIKPYSANKPSDD [PIF-pos5]
Effectiveness (Kv flux): 22.81
Kv flux 100% in nt (stimulus buffer only) (Kv flux): 77.19%

MVRIKPGSANKPSFD [PIF-pos10]
500 ng/ml TpxIC induced CCL5 [1]: Inhibitory effect
Tx pIC induced CxCl10 expression [1]: inhibit
Tx pIC induced RSAD2 [1]: inhibit
effect on RSAD2 compared with sPIF [3]: similar
suppression of CxCL10, IL28, CCL5 compared with sPIF ([3]; time dependent): more pronounced suppression than sPIF
Effectiveness (Kv flux): 53.72
Kv flux 100% in nt (stimulus buffer only) (Kv flux): 46.28%
K+ inhibition as compared with sPIF (Kv flux): increased K+ inhibition as compared with sPIF
HCV induced CXCL10 expression [2]: inhibit
HCV induced IL28 expression [2]: Inhibitory effect
INFa induced suppression of HCV [2]: potentiate

MVRIIPGSANKPSDD [PIF-pos4]
Effectiveness (Kv flux): −1.117
Kv flux 100% in nt (stimulus buffer only) (Kv flux): 101.1%

MVRIKPGSANWPSDD [PIF-pos8]
Effectiveness (Kv flux): 45.79
Kv flux 100% in nt (stimulus buffer only) (Kv flux): 54.21%

MVRIKPGSWNKPSDD [PIF-pos7]
Effectiveness (Kv flux): −22.27
Kv flux 100% in nt (stimulus buffer only) (Kv flux): 122.3%

MVRIKPGSANKWSDD [PIF-pos9]
Effectiveness (Kv flux): 34.09
Kv flux 100% in nt (stimulus buffer only) (Kv flux): 65.91%

MVRIFPGSANKPSDD [PIF-pos2]
Effectiveness (Kv flux): −17.02
Kv flux 100% in nt (stimulus buffer only) (Kv flux): 117%

Reference: US20230190867A1, “METHODS OF TREATING NASH AND COMPOSITIONS THEREFORE” (BIOINCEPT, LLC, priority 2018, published 2023)
